Read-outs that look alike come from different tables or passages of the source. Marks after values point to notes of the source that are not given here.
Key:
[1] = test system: E. coli; design: method as in PMID 28507124; details: different E. coli strain, printed in column E. coli K12 MG1655; cited from earlier work
[2] = test system: S. aureus; details: different S. aureus strain, printed in column S. aureus NCIMB 50080; cited from earlier work
[3] = target: T1, E. coli topoisomerase IV (Escherichia coli, UniProt P0AFI2+P20083); design: method as in PMID 28507124; details: read-out: E. coli topo IV IC50; cited from earlier work
[4] = target: E. coli DNA gyrase (Escherichia coli, UniProt P0AES4+P0AES6); assay: E. coli DNA gyrase supercoiling inhibition assay (gel-based); assay type: biochemical; details: for IC50: supercoiling assay, mean of 2 or 3 experiments, semi-quantitative
[5] = test system: E. coli K12 MG1655; assay: MIC, broth microdilution; assay type: cell-based; details: Escherichia coli, MG1655, read-out: E. coli K12 MG1655 MIC
[6] = test system: S. aureus NCIMB 50080; assay: MIC, broth microdilution; assay type: cell-based
[7] = test system: E. coli K12 MG1655 S83L; assay: MIC, broth microdilution, fluoroquinolone mutant strain; assay type: cell-based; details: Escherichia coli, MG1655, read-out: E. coli K12 MG1655 S83L MIC
[8] = target: T1, E. coli topoisomerase IV; assay: biochemical; assay type: biochemical
[9] = Staphylococcus aureus, NCIMB50080; read-out: S. aureus NCIMB 50080 MIC

In the case of Cl.NCC(NC(=O)c1cccc(-c2cccs2)c1)c1ccc(O)cc1 (stereo not drawn) [Compound 1], the “E. coli MIC” value [1] is given as 8 ^a μg mL^−1, the “S. aureus MIC” value [2] is given as 8 ^a μg mL^−1 and the IC50 [3] is given as > 540 µM.
With Cc1ccc(C(=O)N[C@@H](CN)c2ccccc2)cc1.Cl [Compound 23] the “gyrase inhibition judged visually from gel” value ([4]; at 100 µM, Fig. S2) was “some inhibition” and the IC50 [4] was > 100 µM.
Compound Cl.NC[C@H](NC(=O)c1cccc(-c2ccccc2C(F)(F)F)c1)c1ccccc1 [Compound 5] has an MIC [5] of 32 µg/mL, an MIC [6, 9] of 16 µg/mL and an IC50 [4] of 21 µM. The MIC [7] was 32 µg/mL and the IC50 [8] was > 100 µM.
With CCOc1cccc(-c2cccc(C(=O)NC(CN)c3cccc(O)c3)c2)c1 (stereo not drawn) [Compound 33] the IC50 [4] was 41 µM.
With CCOc1cccc(-c2cccc(C(=O)N[C@@H](CN)c3ccccc3)c2)c1F.Cl [Compound 6, N-[(1R)-2-amino-1-phenylethyl]-3'-ethoxy-2'-fluoro-[1,1'-biphenyl]-3-carboxamide hydrochloride] the MIC [5] was 64 µg/mL, the MIC [6, 9] was 32 µg/mL and the “fold increase in binding affinity against gyrase vs. unsubstituted 2” value ([4]; relative to compound 2) was 5 fold. The IC50 [4] was 12 µM, the MIC [7] was 64 µg/mL and the IC50 [8] was > 100 µM.
Compound Cl.NC[C@H](NC(=O)c1cccc(-c2ccccc2Cl)c1)c1ccccc1 [Compound 9] has an IC50 [4] of 35 µM and a melting point of 160.5 to 163 °C.
Work on CCOc1cccc(-c2cc(C(=O)N[C@@H](CN)c3ccccc3)ccc2C)c1 [Compound 25] yielded an IC50 [4] of 63 µM.
CCOc1cccc(-c2cccc(C(=O)NC(CN)c3cccc(O)c3)c2)c1F (stereo not drawn) [Compound 34] showed an IC50 [4] of 62 µM.
For Cl.NC[C@H](NC(=O)c1cccc(-c2cccc([N+](=O)[O-])c2)c1)c1ccccc1 [Compound 11], the MIC [5] was > 128 µg/mL, the MIC ([6]; Staphylococcus aureus, NCIMB50080, read-out: S. aureus NCIMB 50080 MIC) was > 128 µg/mL and the IC50 [4] was 73 µM. For the same compound, the MIC [7] was > 128 µg/mL and the IC50 [8] was 94 µM.
In the case of CCOc1cccc(-c2cccc(C(=O)N[C@H](CN)c3ccccc3)c2)c1.Cl [Compound 30], the “fold drop in gyrase activity of (S)-enantiomer vs. (R)-enantiomer” value ([4]; 30 vs. 4) is reported as 9 fold and the IC50 [4] is reported as 180 µM.
With COc1ccccc1-c1cccc(C(=O)N[C@H](CN)c2ccccc2)c1 [Compound 29] the IC50 [4] was 36 µM.
For COC(=O)c1cccc(-c2cccc(C(=O)N[C@@H](CN)c3ccccc3)c2)c1.Cl [Compound 13], the IC50 [4] was 24 µM and the melting point was 212 to 215 °C.
For CCOc1cc(C)cc(-c2cc(C(=O)N[C@@H](CN)c3ccccc3)ccc2C)c1 [Compound 26], the IC50 [4] was 56 µM.
With COc1ccccc1-c1cc(C(=O)N[C@@H](CN)c2ccccc2)ccc1C [Compound 24] the IC50 [4] was 153 µM.
In the case of Cc1ccccc1C(=O)N[C@@H](CN)c1ccccc1 [Compound 21], the IC50 [4] is reported as > 100 µM.
For Cl.NC[C@H](NC(=O)c1cccc(Br)c1)c1ccccc1 [Compound 15], the “fold drop in gyrase activity compared to 2” value ([4]; relative to compound 2) was “at least 3 fold” and the IC50 [4] was > 200 µM.
Compound NC[C@H](NC(=O)c1cccc(-c2cccc(Cl)c2)c1)c1ccccc1 [Compound 10] has an IC50 [4] of 39 µM.
For COc1ccccc1-c1cccc(C(=O)NC(CN)c2ccc(O)cc2)c1 (stereo not drawn) [Compound 32], the IC50 [4] was 45 µM.
For CC(=O)c1cccc(-c2cccc(C(=O)N[C@@H](CN)c3ccccc3)c2)c1.Cl [Compound 12], the IC50 [4] was 42 µM and the melting point was ~ 238 °C (dec.).
CCOc1cccc(-c2cccc(C(=O)N[C@@H](CN)c3ccccc3)c2)c1 [Compound 4] showed an IC50 [4] of 20 µM.
In the case of Cc1cccc(C(=O)N[C@@H](CN)c2ccccc2)c1 [Compound 22], the IC50 [4] is reported as > 100 µM.
In the case of CCOc1cccc(-c2cccc(C(=O)NC(CN)c3ccc(O)cc3)c2)c1F (stereo not drawn) [Compound 35], the IC50 [4] is reported as > 200 µM.
For COc1ccccc1-c1cccc(C(=O)NC(CN)c2cccc(O)c2)c1.Cl (stereo not drawn) [Compound 31], the MIC [5] was > 128 µg/mL, the MIC [6, 9] was 128 µg/mL and the IC50 [4] was 41 µM. For the same compound, the MIC [7] was > 128 µg/mL and the IC50 [8] was > 100 µM.
Compound NC[C@H](NC(=O)c1cncc(-c2ccccc2Cl)c1)c1ccccc1 [Compound 27] has an IC50 [4] of 35 µM.
With Cl.NC[C@@H](NC(=O)c1cccc(-c2ccccc2)c1)c1ccccc1 [Compound 28] the IC50 [4] was 76 µM and the melting point was 205 to 207 °C.
With NC[C@H](NC(=O)c1cccc(-c2ccccc2)c1)c1ccccc1 [Compound 2] the IC50 [4] was 60 µM.
With COC(=O)c1ccccc1-c1cccc(C(=O)N[C@@H](CN)c2ccccc2)c1.Cl [Compound 14] the IC50 [4] was 41 µM and the melting point was 145 to 147 °C.
Compound NC[C@H](NC(=O)c1cccc(-c2cccc(O)c2)c1)c1ccccc1 [Compound 8] has an IC50 [4] of 46 µM.
Work on COc1ccccc1-c1cccc(C(=O)N[C@@H](CN)c2ccccc2)c1 [Compound 3] yielded an IC50 [4] of 20 µM.
With CCOc1cc(-c2cccc(C(=O)N[C@@H](CN)c3ccccc3)c2)ccc1F.Cl [Compound 7] the MIC [5] was 32 µg/mL, the MIC [6, 9] was 16 µg/mL and the IC50 [4] was 17 µM. The melting point was 219 to 221 °C, the MIC [7] was 32 µg/mL and the IC50 [8] was 64 µM. For the same compound, the “fold more potent against gyrase than topo IV” value ([8]; E. coli gyrase vs. E. coli topo IV) was ~4 fold.

From paper PMC9298182, “De novo design of type II topoisomerase inhibitors as potential antimicrobial agents targeting a novel binding region” (RSC Medicinal Chemistry, 2022)
